Data from patent publication US20100298141A1, “SUBSTITUTED PYRIDINE N-OXIDE HERBICIDES” (E. I. DU PONT DE NEMOURS AND COMPANY, priority 2007, published 2010).

What was measured:
morningglory [1] = experiment: Test A pre-/postemergence greenhouse test; type: in vivo, Ipomoea spp.; settings: for Plant response rating, Morningglory: 0 to 100 scale where 0 is no effect and 100 is complete control; for Morningglory plant response rating: 0 to 100 scale
Outline: (§1)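 Each test compound, dissolved in a non-phytotoxic solvent mixture with surfactant, was sprayed directly onto seeded soil (loam/sand blend) and, at the same moment, onto seedlings carrying one to two leaves. Around ten greenhouse days later, plants were rated visually for injury relative to untreated controls.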

soybean = experiment: Test C pre-/postemergence test; type: in vivo, Glycine max; settings: for Plant response rating, Soybean: 31 g ai/ha, scale 0 to 100 (0 no effect, 100 complete control)
Outline: (§2)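 Compounds in a non-phytotoxic solvent with surfactant applied preemergence to seeded pots and, at the same time, postemergence to plants 2–18 cm tall (1- to 4-leaf stage). Paddy tests: pots flooded to 3 cm, compound applied into the water, depth held throughout.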

umbrella sedge = experiment: Test C flooded paddy test; type: in vivo, Cyperus difformis; settings: Flood
Outline: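 Test compounds are applied straight into paddy water held 3 cm above the soil surface, with that flood maintained for the whole test. After 13 to 15 days in the greenhouse, each species is scored visually relative to controls.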

pigweed = experiment: Test C pre-/postemergence test; type: in vivo, Amaranthus retroflexus; settings: for Plant response rating, Pigweed: 31 g ai/ha, scale 0 to 100 (0 no effect, 100 complete control)
Outline: as §2

[2] = test system: common (oilseed) sunflower; experiment: Test C pre-/postemergence test; type: in vivo, Helianthus annuus; settings: for Plant response rating, Sunflower: 31 g ai/ha, scale 0 to 100 (0 no effect, 100 complete control)
Outline: as §2

corn = experiment: Test C pre-/postemergence test; type: in vivo, Zea mays; settings: for Plant response rating, Corn: 31 g ai/ha, scale 0 to 100 (0 no effect, 100 complete control)
Outline: as §2

wheat = experiment: Test C pre-/postemergence test; type: in vivo, Triticum aestivum; settings: for Plant response rating, Wheat: 31 g ai/ha, scale 0 to 100 (0 no effect, 100 complete control)
Outline: as §2

kochia = experiment: Test C pre-/postemergence test; type: in vivo, Kochia scoparia; settings: for Plant response rating, Kochia: 31 g ai/ha, scale 0 to 100 (0 no effect, 100 complete control)
Outline: as §2

green foxtail = experiment: Test C pre-/postemergence test; type: in vivo, Setaria viridis
Outline: as §2

woolly cupgrass = experiment: Test C pre-/postemergence test; type: in vivo, Eriochloa villosa; settings: for Plant response rating, Cupgrass, Woolly: 31 g ai/ha, scale 0 to 100 (0 no effect, 100 complete control)
Outline: as §2

crabgrass = experiment: Test C pre-/postemergence test; type: in vivo, Digitaria sanguinalis; settings: for Plant response rating, Crabgrass, Large: 31 g ai/ha, scale 0 to 100 (0 no effect, 100 complete control)
Outline: as §2

morningglory [3] = experiment: Test C pre-/postemergence test; type: in vivo, Ipomoea coccinea; settings: for Plant response rating, Morningglory: 31 g ai/ha, scale 0 to 100 (0 no effect, 100 complete control)
Outline: as §2

barnyardgrass = experiment: Test A pre-/postemergence greenhouse test; type: in vivo, Echinochloa crus-galli; settings: for Plant response rating, Barnyardgrass: 0 to 100 scale where 0 is no effect and 100 is complete control; for Barnyardgrass plant response rating: 0 to 100 scale
Outline: as §1

Italian ryegrass = experiment: Test C pre-/postemergence test; type: in vivo, Lolium multiflorum; settings: for Plant response rating, Ryegrass, Italian: 31 g ai/ha, scale 0 to 100 (0 no effect, 100 complete control)
Outline: as §2

yellow nutsedge = experiment: Test C pre-/postemergence test; type: in vivo, Cyperus esculentus; settings: for Plant response rating, Nutsedge, Yellow: 31 g ai/ha, scale 0 to 100 (0 no effect, 100 complete control)
Outline: as §2

cocklebur = experiment: Test C pre-/postemergence test; type: in vivo, Xanthium strumarium; settings: for Plant response rating, Cocklebur: 31 g ai/ha, scale 0 to 100 (0 no effect, 100 complete control)
Outline: as §2

blackgrass = experiment: Test C pre-/postemergence test; type: in vivo, Alopecurus myosuroides; settings: for Plant response rating, Blackgrass: 31 g ai/ha, scale 0 to 100 (0 no effect, 100 complete control)
Outline: as §2

[4] = Postemergence, 500 g ai/ha, 0 is no effect, 100 is complete control
[5] = Preemergence, 125 g ai/ha, 0 no effect, 100 complete control
[6] = 62 g ai/ha, Preemergence, scale 0 to 100
[7] = 125 g ai/ha, preemergence, scale 0 (no effect) to 100 (complete control)
[8] = preemergence, 250 g ai/ha, scale 0 (no effect) to 100 (complete control)
[9] = 250 g ai/ha, scale 0 to 100, 0 no effect, 100 complete control, 13 to 15 days
[10] = Postemergence, 125 g ai/ha, 0 is no effect, 100 is complete control

What does the source list for `Cn1nc(C(F)(F)F)c(CS(=O)(=O)c2cccc[n+]2[O-])c1OCC(F)F` [Compound 81]?
Plant response rating, Morningglory (morningglory [1]; Postemergence, 125 g ai/ha): 30; Morningglory plant response rating (morningglory [1]; [4]): 50; Morningglory plant response rating (morningglory [1]; [5]): 0; Plant response rating, Morningglory (morningglory [1]; Preemergence, 500 g ai/ha): 80; Soybean plant response rating (soybean; [6]): 0; Soybean plant response rating (soybean; [7]): 100; Plant response rating, Soybean (soybean; Preemergence): 0; Soybean plant response rating (soybean; [8]): 100; Plant response rating, Sedge, Umbrella (umbrella sedge; 62 g ai/ha, scale 0 to 100 (0 no effect, 100 complete control)): 75; Plant response rating, Sedge, Umbrella (umbrella sedge; [9]): 95; Pigweed plant response rating (pigweed; [6]): 98; Pigweed plant response rating (pigweed; [7]): 100; Plant response rating, Pigweed (pigweed; Preemergence): 0; Pigweed plant response rating (pigweed; [8]): 100; Sunflower plant response rating [2, 6]: 0; Sunflower plant response rating [2, 7]: 50; Plant response rating, Sunflower ([2]; Preemergence): 0; Sunflower plant response rating [2, 8]: 75; Corn plant response rating (corn; [6]): 20; Corn plant response rating (corn; [7]): 100; Plant response rating, Corn (corn; Preemergence): 0; Corn plant response rating (corn; [8]): 100; Wheat plant response rating (wheat; [6]): 5; Wheat plant response rating (wheat; [7]): 80; Plant response rating, Wheat (wheat; Preemergence): 0; Wheat plant response rating (wheat; [8]): 80; Kochia plant response rating (kochia; [6]): 100; Kochia plant response rating (kochia; [7]): 100; Plant response rating, Kochia (kochia; Preemergence): 40; Kochia plant response rating (kochia; [8]): 100; Foxtail, Green plant response rating (green foxtail; [6]): 75; Foxtail, Green plant response rating (green foxtail; [7]): 100; Plant response rating, Foxtail, Green (green foxtail; Preemergence, 31 g ai/ha, scale 0 to 100 (0 no effect, 100 complete control)): 65; Foxtail, Green plant response rating (green foxtail; [8]): 100; Cupgrass, Woolly plant response rating (woolly cupgrass; [6]): 100; Cupgrass, Woolly plant response rating (woolly cupgrass; [7]): 100; Plant response rating, Cupgrass, Woolly (woolly cupgrass; Preemergence): 85; Cupgrass, Woolly plant response rating (woolly cupgrass; [8]): 100; Crabgrass, Large plant response rating (crabgrass; [6]): 80; Crabgrass, Large plant response rating (crabgrass; [7]): 98; Plant response rating, Crabgrass, Large (crabgrass; Preemergence): 60; Crabgrass, Large plant response rating (crabgrass; [8]): 98; Morningglory plant response rating (morningglory [3]; [6]): 0; Morningglory plant response rating (morningglory [3]; [7]): 85; Plant response rating, Morningglory (morningglory [3]; Preemergence): 0; Morningglory plant response rating (morningglory [3]; [8]): 85; Plant response rating, Barnyardgrass (barnyardgrass; Postemergence, 125 g ai/ha): 60; Barnyardgrass plant response rating (barnyardgrass; [4]): 80; Barnyardgrass plant response rating (barnyardgrass; [5]): 90; Plant response rating, Barnyardgrass (barnyardgrass; Preemergence, 500 g ai/ha): 100; Ryegrass, Italian plant response rating (Italian ryegrass; [6]): 0; Ryegrass, Italian plant response rating (Italian ryegrass; [7]): 50; Plant response rating, Ryegrass, Italian (Italian ryegrass; Preemergence): 0; Ryegrass, Italian plant response rating (Italian ryegrass; [8]): 100; Nutsedge, Yellow plant response rating (yellow nutsedge; [6]): 70; Nutsedge, Yellow plant response rating (yellow nutsedge; [7]): 85; Plant response rating, Nutsedge, Yellow (yellow nutsedge; Preemergence): 50; Nutsedge, Yellow plant response rating (yellow nutsedge; [8]): 98; Cocklebur plant response rating (cocklebur; [6]): 0; Cocklebur plant response rating (cocklebur; [7]): 50; Plant response rating, Cocklebur (cocklebur; Preemergence): 0; Cocklebur plant response rating (cocklebur; [8]): 60; Plant response rating, Blackgrass (blackgrass; Preemergence): 50

What does the source list for `Cn1nc(C(F)(F)F)c(C(Cl)S(=O)(=O)c2cccc[n+]2[O-])c1OCC(F)(F)F` (racemic) [Compound 36]?
Morningglory plant response rating (morningglory [1]; [10]): 0; Morningglory plant response rating (morningglory [1]; [4]): 30; Morningglory plant response rating (morningglory [1]; [5]): 0; Plant response rating, Morningglory (morningglory [1]; Preemergence, 500 g ai/ha): 80; Soybean plant response rating (soybean; [6]): 5; Soybean plant response rating (soybean; [7]): 15; Plant response rating, Soybean (soybean; Preemergence): 0; Soybean plant response rating (soybean; [8]): 20; Plant response rating, Sedge, Umbrella (umbrella sedge; 31 g ai/ha, scale 0 to 100 (0 no effect, 100 complete control)): 80; Plant response rating, Sedge, Umbrella (umbrella sedge; 62 g ai/ha, scale 0 to 100, 0 no effect, 100 complete control, 13 to 15 days): 85; Plant response rating, Sedge, Umbrella (umbrella sedge; 125 g ai/ha, scale 0 to 100, 0 no effect, 100 complete control, 13 to 15 days): 95; Plant response rating, Sedge, Umbrella (umbrella sedge; [9]): 100; Pigweed plant response rating (pigweed; [6]): 90; Pigweed plant response rating (pigweed; [7]): 100; Plant response rating, Pigweed (pigweed; Preemergence): 80; Pigweed plant response rating (pigweed; [8]): 100; Sunflower plant response rating [2, 6]: 0; Sunflower plant response rating [2, 7]: 0; Plant response rating, Sunflower ([2]; Preemergence): 0; Sunflower plant response rating [2, 8]: 0; Corn plant response rating (corn; [6]): 40; Corn plant response rating (corn; [7]): 60; Plant response rating, Corn (corn; Preemergence): 0; Corn plant response rating (corn; [8]): 80; Wheat plant response rating (wheat; [6]): 0; Wheat plant response rating (wheat; [7]): 0; Plant response rating, Wheat (wheat; Preemergence): 0; Wheat plant response rating (wheat; [8]): 15; Kochia plant response rating (kochia; [7]): 20; Plant response rating, Kochia (kochia; Preemergence): 0; Kochia plant response rating (kochia; [8]): 100; Foxtail, Green plant response rating (green foxtail; [6]): 70; Foxtail, Green plant response rating (green foxtail; [7]): 75; Foxtail, Green plant response rating (green foxtail; [8]): 100; Cupgrass, Woolly plant response rating (woolly cupgrass; [6]): 55; Cupgrass, Woolly plant response rating (woolly cupgrass; [7]): 100; Plant response rating, Cupgrass, Woolly (woolly cupgrass; Preemergence): 55; Cupgrass, Woolly plant response rating (woolly cupgrass; [8]): 100; Crabgrass, Large plant response rating (crabgrass; [6]): 80; Crabgrass, Large plant response rating (crabgrass; [7]): 100; Plant response rating, Crabgrass, Large (crabgrass; Preemergence): 65; Crabgrass, Large plant response rating (crabgrass; [8]): 100; Morningglory plant response rating (morningglory [3]; [6]): 10; Morningglory plant response rating (morningglory [3]; [7]): 60; Plant response rating, Morningglory (morningglory [3]; Preemergence): 0; Morningglory plant response rating (morningglory [3]; [8]): 75; Barnyardgrass plant response rating (barnyardgrass; [10]): 40; Barnyardgrass plant response rating (barnyardgrass; [4]): 80; Barnyardgrass plant response rating (barnyardgrass; [5]): 100; Plant response rating, Barnyardgrass (barnyardgrass; Preemergence, 500 g ai/ha): 100; Ryegrass, Italian plant response rating (Italian ryegrass; [6]): 98; Ryegrass, Italian plant response rating (Italian ryegrass; [7]): 100; Plant response rating, Ryegrass, Italian (Italian ryegrass; Preemergence): 30; Ryegrass, Italian plant response rating (Italian ryegrass; [8]): 100; Nutsedge, Yellow plant response rating (yellow nutsedge; [6]): 50; Nutsedge, Yellow plant response rating (yellow nutsedge; [7]): 100; Plant response rating, Nutsedge, Yellow (yellow nutsedge; Preemergence): 0; Nutsedge, Yellow plant response rating (yellow nutsedge; [8]): 100; Cocklebur plant response rating (cocklebur; [6]): 0; Cocklebur plant response rating (cocklebur; [7]): 0; Plant response rating, Cocklebur (cocklebur; Preemergence): 0; Cocklebur plant response rating (cocklebur; [8]): 0; Blackgrass plant response rating (blackgrass; [6]): 95; Blackgrass plant response rating (blackgrass; [7]): 95; Plant response rating, Blackgrass (blackgrass; Preemergence): 60; Blackgrass plant response rating (blackgrass; [8]): 100
